According to publication PMC10920834, “Synthesis, anticancer activity, and molecular docking of half-sandwich iron(II) cyclopentadienyl complexes with maleimide and phosphine or phosphite ligands” (Scientific Reports, 2024):

Assays:
[1] = tested on: HL-60 cells; experiment: Alkaline comet assay, HL-60 cells; type: cell-based, human
Description: Selected iron(II) complexes were added to the suspension of the cells to give final concentrations of 1, 5, 10, 25 and 50 μM. HL-60 and A549 cells were incubated with the complexes for 2 h at 37 °C. The comet assay was performed under alkaline conditions according to the procedure of Tokarz et al.[45]. […] Next, the cells were lysed for 1 h at 4 °C in a buffer containing 2.5 M NaCl, 0.1 M EDTA, 10 mM Tris, 1% Triton X-100, pH 10. Following the lysis, the slides were placed in an electrophoresis unit. DNA was allowed to unwind for 20 min in the solution containing 300 mM NaOH and 1 mM EDTA, pH > 13. […] After separation, the slides were washed in water, drained, stained with 2 μg/ml DAPI and covered with cover slips. As a prevention from additional DNA damage, the procedure described above was conducted under limited light or in the dark. Each experiment included the positive control—cells incubated with H2O2 at 20 µM for 15 min on ice (data not shown).
The comets obtained after single cell gel electrophoresis were analysed in the following manner. […] Hundred images of singular comets were randomly selected from each sample and the mean value of DNA in comet tail was taken as an index of DNA damage (expressed in percent).

[2] = tested on: HL-60 cells; experiment: Cell viability resazurin assay, HL-60 cells; type: cell-based, human; settings: for viability of HL-60 cells relative to control: ± SD
Description: (§1) The A549 (human non-small cell lung cancer) cell line was obtained from the American Type Culture Collection (ATCC) and cultured in Dulbecco's Modified Eagle Medium (DMEM) with 10% fetal bovine serum (FBS), 2 mM L-Glutamine, 25 mM HEPES and penicillin/streptomycin solution (100 U/ml and 100 µg/ml, respectively). The HL-60 (human promyelocytic leukemia) cell line was also obtained from the American Type Culture Collection (ATCC) and cultured in Iscove’s Modified Dulbecco's Medium (IMDM) with 15% fetal bovine serum (FBS), 2 mM L-Glutamine, 25 mM HEPES and penicillin/streptomycin solution (100 U/ml and 100 µg/ml, respectively). Both cell lines were cultured in flasks at 37 °C in 5% CO2 and sub-cultured every 2–3 days to maintain exponential growth.
(§2) Firstly, resazurin salt powder was dissolved in sterile 1 × PBS. Cells were then seeded on the 96-well plates in the count of 1 × 10^4 in the case of HL-60 cells and of 5 × 10^4 for PBM cells and of 5 × 10^3 for A549 cells per well. A549 cells were seeded 24 h prior to treatment with the complexes to allow cell adherence to 96-well plate. Iron(II) complexes were added to wells to obtain final concentrations of 0.5, 1, 2.5, 5, 10, 25, 50, 100 and 250 μM. Subsequently, plates were incubated at 37 °C in 5% CO2 for 2 h and 24 h. After that 10 μl of resazurin salt was added to each well and plates again were incubated in 37 °C in 5% CO2 for 2 h. Finally, fluorescence was measured with microplate reader Synergy HT (Bio-Tek Instruments, USA) using an excitation wavelength of 530/25 and an emission wavelength of 590/35 nm. The effects of iron(II) complexes were calculated as the percentage of control fluorescence. IC50 (half maximal inhibitory concentration) values were calculated using a website algorithm (https://www.aatbio.com/tools/ic50-calculator). All assays were performed in octuplicate.

[3] = tested on: PBM cells; experiment: Cell viability resazurin assay, PBM cells; type: cell-based, human; settings: for viability of PBM cells relative to control: ± SD
From the text: Peripheral blood mononuclear (PBM) cells were isolated from a leukocyte-buffy coat collected from the blood of healthy, non-smoking donors at the Blood Bank in Lodz, Poland. The study protocol received approval from the Committee for Research on Human Subjects of the University of Lodz (17/KBBN-UŁ/III/2019). The initial step of isolation process involved mixing buffy coats with PBS in a 1:1 ratio. Subsequently, the mixture was centrifuged using a density gradient of Lymphosep (Cytogen, Zgierz, Poland) at 2200 RPM for 20 min, employing the lowest values for acceleration and deceleration. PBM cells were collected and washed three times by centrifugation with 1 × PBS. Following isolation, the cells were suspended in RPMI 1640 medium.
as §2

[4] = tested on: A549 cells; experiment: Cell viability resazurin assay, A549 cells; type: cell-based, human; settings: for viability of A549 cells relative to control: ± SD
Description: as §1, §2

[5] = tested on: PBM cells; settings: cited from earlier work

## O=C1C=CC(=O)[N-]1.[C-]#[O+].[C-]#[O+].[Fe+2].c1cc[cH-]c1 [compound 1, CpFe(CO)2(η^1-N-maleimidato)]
[1]; 2 h incubation, 1-50 μM tested
  DNA damage in HL-60 cells (alkaline comet assay), in words: induced DNA damage
[1]; HL-60 cells, 2 h, 50 μM
  DNA in tail (alkaline comet assay): 25%
[2]; 2 h incubation, 0.5 µM
  viability of HL-60 cells relative to control: 101.68 ± 0.96%
[2]; 2 h incubation, 1 µM
  viability of HL-60 cells relative to control: 101.06 ± 1.48%
[2]; 2 h incubation, 2.5 µM
  viability of HL-60 cells relative to control: 100.83 ± 2.04%
[2]; 2 h incubation, 5 µM
  viability of HL-60 cells relative to control: 97.79 ± 1.25%
[2]; 2 h incubation, 10 µM
  viability of HL-60 cells relative to control: 89.74 ± 2.7%
[2]; 2 h incubation, 25 µM
  viability of HL-60 cells relative to control: 83.96 ± 1.62%
[2]; 2 h incubation, 50 µM
  viability of HL-60 cells relative to control: 73.55 ± 0.27%
[2]; 2 h incubation, 100 µM
  viability of HL-60 cells relative to control: 24.73 ± 1.89%
[2]; 2 h incubation, 250 µM
  viability of HL-60 cells relative to control: 15.71 ± 0.21%
[2]; 24 h incubation
  IC50: 7.69 µM
[2]; 24 h incubation, 0.5 µM
  viability of HL-60 cells relative to control: 106.53 ± 5.45%
[2]; 24 h incubation, 1 µM
  viability of HL-60 cells relative to control: 107.4 ± 3.25%
[2]; 24 h incubation, 2.5 µM
  viability of HL-60 cells relative to control: 109.43 ± 1.41%
[2]; 24 h incubation, 5 µM
  viability of HL-60 cells relative to control: 89.27 ± 2.42%
[2]; 24 h incubation, 10 µM
  viability of HL-60 cells relative to control: 42.91 ± 0.62%
[2]; 24 h incubation, 25 µM
  viability of HL-60 cells relative to control: 37.45 ± 1.48%
[2]; 24 h incubation, 50 µM
  viability of HL-60 cells relative to control: 30.99 ± 0.27%
[2]; 24 h incubation, 100 µM
  viability of HL-60 cells relative to control: 14.21 ± 0.37%
[2]; 24 h incubation, 250 µM
  viability of HL-60 cells relative to control: 3.83 ± 0.21%
[3]; 2 h incubation, 0.5 µM
  viability of PBM cells relative to control: 101.07 ± 0.78%
[3]; 2 h incubation, 1 µM
  viability of PBM cells relative to control: 100.74 ± 0.73%
[3]; 2 h incubation, 2.5 µM
  viability of PBM cells relative to control: 99.56 ± 1.96%
[3]; 2 h incubation, 5 µM
  viability of PBM cells relative to control: 99.26 ± 2.82%
[3]; 2 h incubation, 10 µM
  viability of PBM cells relative to control: 101.49 ± 4.25%
[3]; 2 h incubation, 25 µM
  viability of PBM cells relative to control: 99.86 ± 1.87%
[3]; 2 h incubation, 50 µM
  viability of PBM cells relative to control: 100.66 ± 0.97%
[3]; 2 h incubation, 100 µM
  viability of PBM cells relative to control: 100.59 ± 1.01%
[3]; 2 h incubation, 250 µM
  viability of PBM cells relative to control: 93.17 ± 2.92%
[3]; 24 h incubation
  IC50: 106 µM
[3]; 24 h incubation, 0.5 µM
  viability of PBM cells relative to control: 106.05 ± 1.67%
[3]; 24 h incubation, 1 µM
  viability of PBM cells relative to control: 103.84 ± 0.59%
[3]; 24 h incubation, 2.5 µM
  viability of PBM cells relative to control: 99.3 ± 1.2%
[3]; 24 h incubation, 5 µM
  viability of PBM cells relative to control: 91.84 ± 1.72%
[3]; 24 h incubation, 10 µM
  viability of PBM cells relative to control: 85.39 ± 1.19%
[3]; 24 h incubation, 25 µM
  viability of PBM cells relative to control: 89.23 ± 0.44%
[3]; 24 h incubation, 50 µM
  viability of PBM cells relative to control: 78.87 ± 1.76%
[3]; 24 h incubation, 100 µM
  viability of PBM cells relative to control: 50.82 ± 1.08%
[3]; 24 h incubation, 250 µM
  viability of PBM cells relative to control: 21.96 ± 0.71%
[4]; 2 h incubation, 0.5 µM
  viability of A549 cells relative to control: 93.79 ± 10.65%
[4]; 2 h incubation, 1 µM
  viability of A549 cells relative to control: 93.56 ± 10.37%
[4]; 2 h incubation, 2.5 µM
  viability of A549 cells relative to control: 78.45 ± 9.98%
[4]; 2 h incubation, 5 µM
  viability of A549 cells relative to control: 67.97±12.88%
[4]; 2 h incubation, 10 µM
  viability of A549 cells relative to control: 63.34 ± 13%
[4]; 2 h incubation, 25 µM
  viability of A549 cells relative to control: 51.29 ± 9.65%
[4]; 2 h incubation, 50 µM
  viability of A549 cells relative to control: 41.64 ± 8.89%
[4]; 2 h incubation, 100 µM
  viability of A549 cells relative to control: 36.49 ± 6.19%
[4]; 2 h incubation, 250 µM
  viability of A549 cells relative to control: 36.35 ± 4.86%
[4]; 24 h incubation
  IC50: 54.2 µM
[4]; 24 h incubation, 0.5 µM
  viability of A549 cells relative to control: 75.31 ± 7.67%
[4]; 24 h incubation, 1 µM
  viability of A549 cells relative to control: 70.02 ± 8.73%
[4]; 24 h incubation, 2.5 µM
  viability of A549 cells relative to control: 73.33 ± 7.65%
[4]; 24 h incubation, 5 µM
  viability of A549 cells relative to control: 104.37 ± 10.70%
[4]; 24 h incubation, 10 µM
  viability of A549 cells relative to control: 108.72 ± 15.90%
[4]; 24 h incubation, 25 µM
  viability of A549 cells relative to control: 82.97 ± 8.04%
[4]; 24 h incubation, 50 µM
  viability of A549 cells relative to control: 50.31 ± 12.68%
[4]; 24 h incubation, 100 µM
  viability of A549 cells relative to control: 9.43 ± 1.69%
[4]; 24 h incubation, 250 µM
  viability of A549 cells relative to control: 2.35 ± 0.49%

## O=C1C=CC(=O)[N-]1.[C-]#[O+].[Ru+2].c1cc[cH-]c1.c1ccc(P(c2ccccc2)c2ccccc2)cc1 [2a-Ru]
[5]
  cytotoxicity toward PBM cells of ruthenium analogues, in words: non-toxic
